Reference: ChEMBL document CHEMBL1151593, “Synthesis and nti-tubulin activity of aza-combretastatins” (Bioorg Med Chem Lett, 1994)

The molecules below were run against Tubulin alpha chain (Sus scrofa, UniProt P02550) (assay: Evaluated for the inhibitory concentration against porcine brain tubulin polymerization).
Assay type: functional

Tubulin alpha chain, sequence (P02550 whole entry, looked up): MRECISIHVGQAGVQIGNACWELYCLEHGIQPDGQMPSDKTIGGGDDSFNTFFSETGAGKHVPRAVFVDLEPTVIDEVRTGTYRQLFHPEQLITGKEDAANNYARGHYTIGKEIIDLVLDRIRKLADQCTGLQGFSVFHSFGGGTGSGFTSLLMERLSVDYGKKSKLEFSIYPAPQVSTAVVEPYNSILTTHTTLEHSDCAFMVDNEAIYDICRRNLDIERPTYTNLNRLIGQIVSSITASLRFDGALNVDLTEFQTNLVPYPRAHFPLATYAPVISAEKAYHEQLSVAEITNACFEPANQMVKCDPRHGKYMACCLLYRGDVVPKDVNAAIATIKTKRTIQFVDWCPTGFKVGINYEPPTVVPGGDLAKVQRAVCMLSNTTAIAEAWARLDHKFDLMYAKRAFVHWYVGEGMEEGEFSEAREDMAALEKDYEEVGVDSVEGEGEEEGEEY

Point of comparison: `CCCN(Cc1cc(OC)c(OC)c(OC)c1)c1ccc(OC)c(O)c1`, IC50 5.4 µM. Against it:
- COc1ccc(N(Cc2cc(OC)c(OC)c(OC)c2)C(C)=O)cc1O — higher, > 100 µM
- COc1ccc(CNc2cc(OC)c(OC)c(OC)c2)cc1O — 19-fold higher, 100 µM
- CCCCN(Cc1cc(OC)c(OC)c(OC)c1)c1ccc(OC)c(O)c1 — within 1.5-fold, 7.5 µM
- COc1ccc(N(C)C(=O)c2cc(OC)c(OC)c(OC)c2)cc1O — higher, > 100 µM
- CCN(Cc1cc(OC)c(OC)c(OC)c1)c1ccc(OC)c(O)c1 — 2.8-fold higher, 15 µM
- COc1ccc(N(C)Cc2cc(OC)c(OC)c(OC)c2)cc1O — 8.3-fold higher, 45 µM
- COc1ccc(CN(C)c2cc(OC)c(OC)c(OC)c2)cc1O — 19-fold higher, 100 µM
- COc1ccc(C(=O)N(C)c2cc(OC)c(OC)c(OC)c2)cc1O — higher, > 100 µM
- COc1ccc(C(=O)Nc2cc(OC)c(OC)c(OC)c2)cc1O — higher, > 100 µM
- CCC(=O)N(Cc1cc(OC)c(OC)c(OC)c1)c1ccc(OC)c(O)c1 — higher, > 100 µM
- COc1ccc(N(CCCCCO)Cc2cc(OC)c(OC)c(OC)c2)cc1O — 3.7-fold higher, 20 µM
- CCCCCCN(Cc1cc(OC)c(OC)c(OC)c1)c1ccc(OC)c(O)c1 — 3.7-fold higher, 20 µM
- CCCCCN(Cc1cc(OC)c(OC)c(OC)c1)c1ccc(OC)c(O)c1 — 3.7-fold higher, 20 µM
- COc1ccc(NC(=O)c2cc(OC)c(OC)c(OC)c2)cc1O — higher, > 100 µM
- COc1ccc(NCc2cc(OC)c(OC)c(OC)c2)cc1O — 19-fold higher, 100 µM
- COc1ccc(N(CCCC(=O)O)Cc2cc(OC)c(OC)c(OC)c2)cc1O — 7.4-fold higher, 40 µM
